Source: patent publication US6294650A, “Inhibition of mammalian telomerase by peptide nucleic acids” (The Board of Regents, University of Texas System, priority 1999, dated 2001)
pIC50: −log10 of the molar value. Where two headings read alike, the source gives them in different places.

Columns and labels:
human telomerase [1] = experiment: TRAPeze telomerase assay, HME50-5 cell lysate preincubated with PNA (PNA scanning); assay type: biochemical; details: 25° C., 30 min preincubation; for IC50: read-out: IC50 (μM), Table 2
Protocol: The source of telomerase was human immortal primary breast epithelial cell line (HME50-5). Cultured cells (10^5 -10^6) were lysed as recommended in the protocol supplied by Oncor. Cell lysates containing 200 cell equivalents were preincubated at 25° C. for 30 minutes with PNA (0 to 100 μM, diluted in 10 mM Tris pH 8.3 and 10 μg ml^-1 bovine serum albumin (BSA)). PNAs sometime aggregated upon prolonged storage, so PNA stocks were briefly heated to 55° C. prior to addition to assay mixtures to ensure reproducible inhibition. Following preincubation, TRAPeze reaction mixture (20 mM Tris-HCl, pH 8.3, 1.5 mM MgCl2, 63 mM KCl, 0.05% Tween 20, 1 mM EGTA, and 0.01% BSA, 50 μM dNTPs, and primer mix supplied in the kit) was added directly to the mixture of PNA and cell extract. This reaction was incubated at 25° C. for 30 minutes to allow telomerase to elongate the TS primer. […] The tubes were transferred to a PCR thermocycler, and a two-step cycle (30 sec 94° C. and 30 sec 60° C.) was performed 27 times. Samples were analyzed using nondenaturing polyacrylamide gel electrophoresis.
Telomerase products and an internal PCR control were quantitated by phosphorimager analysis (Molecular Dynamics). The lanes were divided into one region encompassing the telomerase products and another including the internal standard signal. The radioisotope density was integrated for each area, and the ratio of telomerase product to internal standard was determined. This value was normalized to a positive control (no PNA added) where the ratio of telomerase products to internal standard was assigned 100% activity. The extent inhibition was plotted against the final PNA concentration used in the preincubation reaction, and these graphs were used to estimate the IC50 values.
These PNAs were incubated with telomerase-containing cell extracts derived from a human immortal primary breast epithelial cell line (HME50-5) and assayed their influence on telomerase activity using the telomere repeat amplification protocol (TRAP) (Holt et al., supra).

[2] = system: complementary DNA oligonucleotides; experiment: Melting temperature of PNA:DNA duplexes, absorbance at 260 nm; assay type: physicochemical; details: PNA with complementary DNA, 20 μM each, 1.0 M phosphate pH 7.6
Protocol: Determinations were done in a volume of 0.5 mL in a capped cuvette. […] Absorbance was recorded from 25° C. to 90° C. in 4° C. or 5° C. increments using a 2 minute equilibration time between each measurement. DNA oligonucleotides used for measuring Tm values, and their complementary PNAs were as follows; [NT] […] ID NO:31) ([…] ID NO:32) (PNAs 7, 17). Melting temperatures were measured (Tm) of duplexes between PNAs and their DNA complements to ensure that the PNAs used in these studies could form duplexes with complementary sequences at the assay temperature of 25° C. DNA oligonucleotides were used because employment of DNA rather than RNA facilitated analysis of the large number of PNAs that required assay. Comparison to RNA:PNA melting temperatures is justified because Tm 's for PNA:DNA and PNA:RNA hybrids are similar.

human telomerase [3] = experiment: Km app of telomerase for TS primer (TRAP assay with varied TS primer); assay type: biochemical; details: TS primer 0 to 60 nM, 30 min at 25° C.; read-out: apparent binding constant, Km app, of telomerase for TS primer
Protocol: Telomerase assays were performed essentially as described above with slight modifications. Both the TS and CX primers (0.1 μg) were placed below the wax barrier and the concentration of TS primer was varied from 0 nM to 60 nM, above the wax barrier, in the reaction mixture. The reaction was allowed to proceed for 30 minutes at 25° C. followed by PCR as described. The products were quantitated as described with telomerase activity relative to control plotted versus the TS primer concentration.
To put the efficiency of inhibition into context, the affinity of the TS primer for telomerase was determined. Primer affinity of telomerase was determined by monitoring the level of telomerase activity as a function of concentration of the TS primer. The TS primer is complementary to only three bases of the RNA template of the hTR, and was not initially expected to bind tightly to telomerase. The TRAP assay was performed as described, except that the concentration of the TS primer above the wax barrier was varied from 0 to 60 nM. The concentration of TS primer below the wax barrier was varied to keep the total concentration constant.

## PNA 4: PNA, sequence GGGTTAGACAA
Human telomerase [1]
  IC50: 0.01 µM
Human telomerase [1]; read-out: IC50 for inhibition of telomerase (text)
  pIC50: 8.00
[2]
  Tm ° C., Table 2: 67 °C
[2]; listed as 4
  Tm ° C., Table 2: 71 °C

## PNA 15: PNA, sequence GCCCTTCTCAG (all peptide nucleic acid (PNA))
Human telomerase [1]
  IC50: 0.5 µM
[2]
  Tm ° C., Table 2: 56 °C

## TS primer: oligonucleotide primer that can be extended by telomerase, 5'-AATCCGTCGAGCAGAGTT-3' (further chemistry not given here)
Human telomerase [3]
  Km: 8 nM
